Consider eight compounds from patent US9566312B2, “Cyclic peptides and use as medicines” (priority 2012, dated 2017).

Like-named read-outs stand apart in the source and are kept apart here. Starred links: 1 amine or outer side, 2 acyl side, 3 side chain; linkers in the order of their positions; H or OH if unused. Non-standard residues stand in square brackets, D forms with d. Residues, ends and D or L forms follow the SMILES beside them. X27 = C[C@H](COCC(=O)N1CCN(C2CCOCC2)CC1)[C@@H](C(=O)[*:2])N(C)[*:1]; X74 = C[C@H](CCN1CCN2C(=O)OC[C@@H]2C1)[C@@H](C(=O)[*:2])N(C)[*:1]; X33 = CC(C)N1CCOC(COC[C@@H](C)[C@@H](C(=O)[*:2])N(C)[*:1])C1; X62 = COCCN1CCN(CCC[C@@H](C)[C@@H](C(=O)[*:2])N(C)[*:1])CC1; X51 = C[C@H](CN1CCC2(COC2)C1)[C@@H](C(=O)[*:2])N(C)[*:1]; X50 = C[C@H](CN1CCNC(=O)C1)[C@@H](C(=O)[*:2])N(C)[*:1]; X71 = COC1CN(CC[C@@H](C)[C@@H](C(=O)[*:2])N(C)[*:1])C1; MeBmt = C/C=C/C[C@@H](C)[C@@H](O)[C@H](NC)C(=O)O; NMeL = CN[C@@H](CC(C)C)C(=O)O; NMeV = CN[C@H](C(=O)O)C(C)C; dNMeA = CN[C@H](C)C(=O)O; Abu = CC[C@H](N)C(=O)O

Test [1] has as its target cyclophilin A (CypA) (Homo sapiens (Human), UniProt P62937). The experiment in a line: Inhibitor binding to cyclophilin proteins by SPR, CypA.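 Also: Single-cycle kinetics on a Biacore T200, compound injected at several concentrations for 1 min each at 50 µL/min, then 10 min dissociation, in HEPES pH 7.4 buffer with 3% DMSO.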 To be noted: 1:1 binding model. Set-up: unit not given here.
The target of test [2] is cyclophilin B (CypB) (Homo sapiens (Human), UniProt P23284). Put plainly: Inhibitor binding to cyclophilin proteins by SPR, CypB. The arrangement: unit not given here. To be noted: 1:1 binding model. The procedure, abridged:
(§1)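 Mono-biotinylated avi-tagged cyclophilins were captured on a Biotin CAPture chip and compound injected by single-cycle kinetics in 10 mM HEPES pH 7.4, 150 mM NaCl, 0.05% P20, 3% DMSO. Contact 1 min per concentration at 50 μL/min, 10 min final dissociation; 1:1 model fit gave kon, koff, KD.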
(SPR reads the build-up and loss of mass on a sensor chip optically.)

Test [3] concerns the target CypF (Homo sapiens (Human), UniProt P30405). The experiment in a line: Inhibitor binding to cyclophilin proteins by SPR, CypF. To be noted: 1:1 binding model. In short, it runs like this: as §1
Test [4] has as its system genotype 1b subgenomic HCV replicon in Huh7.5 cells. It counts as cell-based, hepatitis C virus. As to conditions: read-out: RPLN-1b IC50. The procedure, abridged: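 Replicon inhibition read as renilla luciferase signal versus DMSO controls after 72 h incubation, in Huh7.5 cells harbouring a genotype 1b subgenomic replicon; medium phenol red-free DMEM lacking G418. CC50 determined in parallel via Cell Titer-Glo.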

Test [5] has as its system peripheral blood mononuclear cells (PBMC). Put plainly: Anti-proliferative or immunosuppressive activity, BrdU incorporation in PHA-stimulated PBMC. Format: cell-based. To be noted: PHA 3 μg/ml, 60 hour compound treatment; read-out: EMV PBMC IC50. In short, it runs like this:
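BrdU ELISA read-out of DNA synthesis in freshly isolated PBMCs (two donors, 30,000 cells/well, X-VIVO 15). T-cell proliferation triggered with phytohemagglutinin at 3 μg/ml.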
(Dividing cells build labelled thymidine or BrdU into new DNA.)

Test [6] deals with organic anion transporting polypeptide 1B1 (OATP1B1) (Homo sapiens (Human), UniProt Q9Y6L6). Put plainly: OATP assay in CHO-OATP1B1 cells.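 Also: inhibition of probe substrate uptake into the cells, ten minutes exposure, accumulated substrate read by fluorescence once cells were lysed.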
The mark [7] stands for this setting: genotype 1b replicon, 72 h incubation.

Chain of organic anion transporting polypeptide 1B1 (OATP1B1) (Q9Y6L6 whole entry): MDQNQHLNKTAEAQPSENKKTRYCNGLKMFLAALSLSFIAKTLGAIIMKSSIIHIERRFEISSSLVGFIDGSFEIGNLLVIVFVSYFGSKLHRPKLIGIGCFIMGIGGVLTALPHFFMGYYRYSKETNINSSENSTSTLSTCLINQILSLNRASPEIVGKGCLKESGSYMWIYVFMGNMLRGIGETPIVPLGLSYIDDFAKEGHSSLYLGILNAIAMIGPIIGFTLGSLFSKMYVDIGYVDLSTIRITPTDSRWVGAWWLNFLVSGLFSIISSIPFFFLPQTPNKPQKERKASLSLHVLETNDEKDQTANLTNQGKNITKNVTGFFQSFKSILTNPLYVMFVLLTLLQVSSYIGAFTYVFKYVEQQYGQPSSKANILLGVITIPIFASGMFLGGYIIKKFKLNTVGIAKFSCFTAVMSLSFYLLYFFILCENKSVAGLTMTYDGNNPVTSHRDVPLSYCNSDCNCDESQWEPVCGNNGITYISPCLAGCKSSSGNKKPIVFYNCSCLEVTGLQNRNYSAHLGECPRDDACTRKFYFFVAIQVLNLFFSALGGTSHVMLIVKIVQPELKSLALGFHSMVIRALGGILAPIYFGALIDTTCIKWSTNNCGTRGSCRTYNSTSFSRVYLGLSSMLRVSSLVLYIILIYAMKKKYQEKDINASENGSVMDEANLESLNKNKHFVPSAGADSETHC
Chain of cyclophilin B (CypB) (P23284 34-216): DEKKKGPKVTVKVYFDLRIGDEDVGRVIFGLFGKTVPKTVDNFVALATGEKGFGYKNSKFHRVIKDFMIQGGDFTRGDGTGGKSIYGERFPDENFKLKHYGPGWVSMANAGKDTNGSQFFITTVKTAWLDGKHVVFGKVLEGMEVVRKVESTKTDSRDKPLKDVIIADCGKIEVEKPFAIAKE
Chain of cyclophilin A (CypA) (P62937 whole entry): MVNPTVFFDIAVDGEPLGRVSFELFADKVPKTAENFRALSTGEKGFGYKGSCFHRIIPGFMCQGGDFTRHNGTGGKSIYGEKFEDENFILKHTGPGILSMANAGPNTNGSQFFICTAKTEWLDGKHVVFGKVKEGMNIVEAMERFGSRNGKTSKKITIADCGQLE
Chain of CypF (P30405 30-207): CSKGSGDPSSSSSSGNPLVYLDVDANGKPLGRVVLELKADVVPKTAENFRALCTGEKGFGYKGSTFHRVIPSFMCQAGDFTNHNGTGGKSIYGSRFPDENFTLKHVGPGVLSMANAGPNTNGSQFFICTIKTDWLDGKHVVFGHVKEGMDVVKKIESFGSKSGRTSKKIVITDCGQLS

For the compound `C/C=C/C[C@@H](C)[C@@H](O)[C@H]1C(=O)N[C@@H](CC)C(=O)N(C)[C@H](C)C(=O)N(C)[C@@H]([C@H](C)CCN2CC(OC)C2)C(=O)N[C@@H](C(C)C)C(=O)N(C)[C@@H](CC(C)C)C(=O)N[C@@H](C)C(=O)N[C@H](C)C(=O)N(C)[C@@H](CC(C)C)C(=O)N(C)[C@@H](CC(C)C)C(=O)N(C)[C@@H](C(C)C)C(=O)N1C` [Compound 2.18.5, 3-[D-Ala]-4-[(2S,3R)-5-(3-methoxyazetidin-1-yl)-3-methyl-2-(methylamino)pentanoyl]-cyclosporin] (cyclo(A[dA][NMeL][NMeL][NMeV][MeBmt][Abu][dNMeA][X71]V[NMeL])), in test [1], the “CypA Kd” value is reported as 0.9. Moreover, in test [2], the “CypB Kd” value turned out to be 0.6. In test [3], this compound displayed a CypF Kd of 0.0005 µM. Besides, the IC50 (usually the point on the concentration scale where inhibition reaches its midpoint) is 0.078 µM in test [4] (setting [7]), 8.1 µM in test [5] and 1.4 µM in test [6].

On to `C/C=C/C[C@@H](C)[C@@H](O)[C@H]1C(=O)N[C@@H](CC)C(=O)N(C)[C@H](C)C(=O)N(C)[C@@H]([C@H](C)CCN2CCN3C(=O)OC[C@@H]3C2)C(=O)N[C@@H](C(C)C)C(=O)N(C)[C@@H](CC(C)C)C(=O)N[C@@H](C)C(=O)N[C@H](C)C(=O)N(C)[C@@H](CC(C)C)C(=O)N(C)[C@@H](CC(C)C)C(=O)N(C)[C@@H](C(C)C)C(=O)N1C` [Compound 2.18.9, 3-[D-Ala]-4-[(2S,3R)-3-methyl-2-(methylamino)-5-((S)-3-oxotetrahydro-1H-oxazolo[3,4-a]pyrazin-7(3H)-yl)pentanoyl]-cyclosporin] (cyclo(A[dA][NMeL][NMeL][NMeV][MeBmt][Abu][dNMeA][X74]V[NMeL])), for which the “CypA Kd” value in test [1] was found to be 1.8. In test [2], the “CypB Kd” value came out at 2.7. The same compound came in with a CypF Kd in test [3] of 0.001 µM. The IC50 in test [4] (setting [7]) was 0.17 µM; in test [5], 9.2 µM; in test [6] it was 2.8 µM.

On to `C/C=C/C[C@@H](C)[C@@H](O)[C@H]1C(=O)N[C@@H](CC)C(=O)N(C)[C@H](C(C)C)C(=O)N(C)C([C@H](C)COC)C(=O)N[C@@H](C(C)C)C(=O)N(C)[C@@H](CC(C)C)C(=O)N[C@@H](C)C(=O)N[C@H](C)C(=O)N(C)[C@@H](CC(C)C)C(=O)N(C)[C@@H](CC(C)C)C(=O)N(C)[C@@H](C(C)C)C(=O)N1C` (stereo in doubt) [Compound 3.3, 3-[(R)-3-methyl-2-(methylamino)butanoyl]-4-[(2S,3S)-4-methoxy-3-methyl-2-(methylamino)butanoyl]-cyclosporin], for which, in test [1], the “CypA Kd” value stood at 13.7. Moreover, the “CypB Kd” value in test [2] came out at 7.4. For the same compound, the CypF Kd in test [3] stood at 0.0082 µM. Also, the IC50 was determined as 0.1 µM in test [4], 13.2 µM in test [5] and 2 µM in test [6].

In the case of `C/C=C/C[C@@H](C)[C@@H](O)[C@H]1C(=O)N[C@@H](CC)C(=O)N(C)[C@H](C)C(=O)N(C)[C@@H]([C@H](C)CN2CCC3(COC3)C2)C(=O)N[C@@H](C(C)C)C(=O)N(C)[C@@H](CC(C)C)C(=O)N[C@@H](C)C(=O)N[C@H](C)C(=O)N(C)[C@@H](CC(C)C)C(=O)N(C)[C@@H](CC(C)C)C(=O)N(C)[C@@H](C(C)C)C(=O)N1C` [Compound 2.5.33, 3-[D-Ala]-4-[(2S,3R)-3-methyl-2-(methylamino)-4-(2-oxa-6-azaspiro[3.4]octan-6-yl)butanoyl]-cyclosporin] (cyclo(A[dA][NMeL][NMeL][NMeV][MeBmt][Abu][dNMeA][X51]V[NMeL])), in test [1], the “CypA Kd” value was determined as 1.1. The “CypB Kd” value in test [2] stood at 0.8. Further, in test [3], the CypF Kd is 0.0008 µM. The IC50 is 0.046 µM in test [4] (setting [7]), 10.3 µM in test [5] and 2 µM in test [6].

Consider `C/C=C/C[C@@H](C)[C@@H](O)[C@H]1C(=O)N[C@@H](CC)C(=O)N(C)[C@H](C)C(=O)N(C)[C@@H]([C@H](C)COCC2CN(C(C)C)CCO2)C(=O)N[C@@H](C(C)C)C(=O)N(C)[C@@H](CC(C)C)C(=O)N[C@@H](C)C(=O)N[C@H](C)C(=O)N(C)[C@@H](CC(C)C)C(=O)N(C)[C@@H](CC(C)C)C(=O)N(C)[C@@H](C(C)C)C(=O)N1C` (stereo partly drawn) [Compound 2.20.2, 3-[D-Ala]-4-[(2S,3S)-4-(((S)-4-isopropylmorpholin-2-yl)methoxy)-3-methyl-2-(methylamino)butanoyl]-cyclosporin] (cyclo(A[dA][NMeL][NMeL][NMeV][MeBmt][Abu][dNMeA][X33]V[NMeL])), for which the “CypA Kd” value in test [1] was found to be 0.6. Also, the “CypB Kd” value in test [2] worked out at 0.5. This compound also showed a CypF Kd in test [3] of 0.0003 µM. The IC50 in test [4] (setting [7]) was found to be 0.044 µM; in test [5], 6.4 µM; in test [6] it was 4.3 µM.

As for `C/C=C/C[C@@H](C)[C@@H](O)[C@H]1C(=O)N[C@@H](CC)C(=O)N(C)[C@H](C)C(=O)N(C)[C@@H]([C@H](C)COCC(=O)N2CCN(C3CCOCC3)CC2)C(=O)N[C@@H](C(C)C)C(=O)N(C)[C@@H](CC(C)C)C(=O)N[C@@H](C)C(=O)N[C@H](C)C(=O)N(C)[C@@H](CC(C)C)C(=O)N(C)[C@@H](CC(C)C)C(=O)N(C)[C@@H](C(C)C)C(=O)N1C` [Compound 2.6.2, 3-[D-Ala]-4-[(2S,3S)-4-(2-(4-cyclohexylpiperazin-1-yl)-2-oxoethoxy)-3-methyl-2-(methylamino)butanoyl]-cyclosporin] (cyclo([MeBmt][Abu][dNMeA][X27]V[NMeL]A[dA][NMeL][NMeL][NMeV])), the “CypA Kd” value in test [1] came out at 1.3. The “CypB Kd” value in test [2] is 0.7. In test [3], this compound had a CypF Kd of 0.0006 µM. Also, the figures for the IC50 in test [4], in test [5] and in test [6] were 0.14 µM, 17.3 µM and 3.5 µM, respectively.

On to `C/C=C/C[C@@H](C)[C@@H](O)[C@H]1C(=O)N[C@@H](CC)C(=O)N(C)[C@H](C)C(=O)N(C)[C@@H]([C@H](C)CN2CCNC(=O)C2)C(=O)N[C@@H](C(C)C)C(=O)N(C)[C@@H](CC(C)C)C(=O)N[C@@H](C)C(=O)N[C@H](C)C(=O)N(C)[C@@H](CC(C)C)C(=O)N(C)[C@@H](CC(C)C)C(=O)N(C)[C@@H](C(C)C)C(=O)N1C` [Compound 2.5.30, 3-[D-Ala]-4-[(2S,3R)-3-methyl-2-(methylamino)-4-(3-oxopiperazin-1-yl)butanoyl]-cyclosporin] (cyclo(A[dA][NMeL][NMeL][NMeV][MeBmt][Abu][dNMeA][X50]V[NMeL])), for which the “CypA Kd” value in test [1] stood at 1.7. For the same compound, in test [2], the “CypB Kd” value turned out to be 1.0. This compound yielded a CypF Kd in test [3] of 0.0011 µM. Further, the IC50 was found to be 0.204 µM in test [4] (setting [7]), 34.1 µM in test [5] and 2.1 µM in test [6].

For `C/C=C/C[C@@H](C)[C@@H](O)[C@H]1C(=O)N[C@@H](CC)C(=O)N(C)[C@H](C)C(=O)N(C)[C@@H]([C@H](C)CCCN2CCN(CCOC)CC2)C(=O)N[C@@H](C(C)C)C(=O)N(C)[C@@H](CC(C)C)C(=O)N[C@@H](C)C(=O)N[C@H](C)C(=O)N(C)[C@@H](CC(C)C)C(=O)N(C)[C@@H](CC(C)C)C(=O)N(C)[C@@H](C(C)C)C(=O)N1C` [Compound 2.19.6, 3-[D-Ala]-4-[(2S,3R)-6-(4-(2-methoxyethyl)piperazin-1-yl)-3-methyl-2-(methylamino)hexanoyl]-cyclosporin] (cyclo(A[dA][NMeL][NMeL][NMeV][MeBmt][Abu][dNMeA][X62]V[NMeL])), the “CypA Kd” value in test [1] stood at 0.7. Also, in test [2], the “CypB Kd” value stood at 0.7. In test [3], this compound had a CypF Kd of 0.0005 µM. Moreover, the IC50 was 0.11 µM in test [4] (setting [7]), 1.6 µM in test [5] and 2.2 µM in test [6].
